Laboratory results: patent US12077503B2, “Substituted cyclic amides and their use as herbicides” (FMC CORPORATION, priority 2015, dated 2024)
Where two headings read alike, the source gives them in different places.

Legend:
Type in all cases: in vivo
[1] = tested on: ragweed (common ragweed, Ambrosia elatior); assay: Test A preemergence; conditions: Ambrosia artemisiifolia, pre-emergence, 240 h; for pest or weed control at 125 g/ha: 125 g ai/ha, visual injury after approximately 10 d, 0 to 100 scale where 0 is no effect and 100 is complete control; for pest or weed control at 500 g/ha: 500 g ai/ha
Method in brief: (§1)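 Greenhouse, ~10 d after spray; visual injury vs untreated controls, 0 = no effect, 100 = complete control. Preemergence: directed soil spray over planted seeds. Postemergence: plants 2–10 cm, 1–2 leaf stage. Loam/sand blend. Compound in non-phytotoxic solvent with surfactant.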

[2] = tested on: ryegrass, Italian (Italian ryegrass, Lolium multiflorum); assay: Test A preemergence; conditions: Lolium multiflorum, pre-emergence, 240 h; for pest or weed control at 125 g/ha: 125 g ai/ha, visual injury after approximately 10 d, 0 to 100 scale where 0 is no effect and 100 is complete control; for pest or weed control at 500 g/ha: 500 g ai/ha
Method in brief: as §1

Kochia (Kochia scoparia) = assay: Test A preemergence; conditions: Bassia scoparia, pre-emergence, 240 h; for pest or weed control at 125 g/ha: 125 g ai/ha, visual injury after approximately 10 d, 0 to 100 scale where 0 is no effect and 100 is complete control; for pest or weed control at 500 g/ha: 500 g ai/ha
Method in brief: as §1

[3] = tested on: pigweed (Amaranthus retroflexus); assay: Test A preemergence; conditions: Amaranthus retroflexus, pre-emergence, 240 h; for pest or weed control at 125 g/ha: 125 g ai/ha, visual injury after approximately 10 d, 0 to 100 scale where 0 is no effect and 100 is complete control; for pest or weed control at 500 g/ha: 500 g ai/ha
[4] = tested on: giant foxtail (Setaria faberii); assay: Test A preemergence; conditions: Setaria faberi, pre-emergence, 240 h; for pest or weed control at 125 g/ha: 125 g ai/ha, visual injury after approximately 10 d, 0 to 100 scale where 0 is no effect and 100 is complete control; for pest or weed control at 500 g/ha: 500 g ai/ha
Method in brief: as §1

[5] = tested on: surinam grass (Brachiaria decumbens); assay: Test E preemergence; conditions: scale 0 to 100
Description: (§2) Seeds of plant species selected from corn (Zea mays), soybean (Glycine max), velvetleaf (Abutilon theophrasti), lambsquarters (Chenopodium album), poinsettia, wild (wild poinsettia, Euphorbia heterophylla), pigweed, palmer (palmer pigweed, Amaranthus palmeri), waterhemp (common waterhemp, Amaranthus rudis), surinam grass (Brachiaria decumbens), crabgrass, large (large crabgrass, Digitaria sangumnalis), crabgrass, Brazil (Brazilian crabgrass, Digitaria horizontalis), Panicum, fall (fall Panicum, Panicum dichotomiflorum), foxtail, giant (giant foxtail, Setaria faberii), foxtail, green (green foxtail, Setaria viridis), goosegrass (Eleusine indica), johnsongrass (Sorghum halepense), ragweed (common ragweed, Ambrosia elatior), barnyardgrass (Echinochloa crus-galli), sandbur (southern sandbur, Cenchrus echinatus), arrowleaf Sida (Sida rhombifolia), ryegrass, Italian (Italian ryegrass, Lolium multiflorum), dayflower, VA (Virginia dayflower, Commelina virginica), field bindweed (Convolvulus arvensis), morningglory (Ipomoea coccinea), nightshade (eastern black nightshade, Solanum ptycanthum), Kochia (Kochia scoparia), nutsedge, yellow (yellow nutsedge, Cyperus esculentus), horseweed (Conyza canadensis), and beggarticks (hairy beggarticks, Bidens pilosa), were planted into a silt loam soil and treated preemergence with test chemicals formulated in a non-phytotoxic solvent mixture which included a surfactant.
(§3) At the same time, plants selected from these crop and weed species were planted in pots containing Sunshine Redi-Earth planting medium comprising spaghnum peat moss, vermiculite, starter nutrients and dolomitic limestone and treated with postemergence applications of a test chemical formulated in the same manner. Plants ranged in height from 2 to 18 cm (1- to 4-leaf stage) for postemergence treatments. Treated plants and controls were maintained in a greenhouse for 14 to 21 d, after which time all species were compared to controls and visually evaluated. Plant response ratings, summarized in Table E, are based on a scale of 0 to 100 where 0 is no effect and 100 is complete control. A dash (-) response means no test result.

[6] = tested on: morningglory (Ipomoea coccinea); assay: Test E preemergence; conditions: scale 0 to 100
Description: as §2, §3

[7] = tested on: velvetleaf (Abutilon theophrasti); assay: Test E preemergence; conditions: scale 0 to 100
Description: as §2, §3

[8] = tested on: dayflower, VA (Virginia dayflower, Commelina virginica); assay: Test E preemergence; conditions: scale 0 to 100
Description: as §2, §3

[9] = tested on: nutsedge, yellow (yellow nutsedge, Cyperus esculentus); assay: Test E preemergence; conditions: scale 0 to 100
Description: as §2, §3

[10] = tested on: sandbur (southern sandbur, Cenchrus echinatus); assay: Test E preemergence; conditions: scale 0 to 100
Description: as §2, §3

[11] = tested on: barnyardgrass (Echinochloa crus-galli); assay: Test E preemergence; conditions: scale 0 to 100
Description: as §2, §3

soybean (Glycine max) = assay: Test E preemergence; conditions: scale 0 to 100
Description: as §2, §3

[12] = Preemergence, read-out: Plant response rating, Ragweed
[13] = Preemergence, read-out: Plant response rating, Ryegrass, Italian
[14] = Preemergence, read-out: Plant response rating, Kochia
[15] = Preemergence, read-out: Plant response rating, Pigweed
[16] = Preemergence, read-out: Plant response rating, Foxtail, Giant

SMILES: CN1C[C@H](c2ccc(F)c(F)c2)[C@@H](C(=O)Nc2ccccc2F)C1=O [Compound 596, (3S,4S)-4-(3,4-difluorophenyl)-N-(2-fluorophenyl)-1-methyl-2-oxo-3-pyrrolidinecarboxamide]
- pest or weed control at 125 g/ha [1, 12]: 0%
- pest or weed control at 500 g/ha ([1]; Preemergence, visual injury approx. 10 d, read-out: Ragweed plant response rating (0 to 100 scale, 0 is no effect, 100 is complete control)): 20%
- pest or weed control at 125 g/ha [2, 13]: 40%
- pest or weed control at 500 g/ha ([2]; Preemergence, visual injury approx. 10 d, read-out: Ryegrass, Italian plant response rating (0 to 100 scale, 0 is no effect, 100 is complete control)): 50%
- pest or weed control at 125 g/ha (Kochia (Kochia scoparia); [14]): 20%
- pest or weed control at 500 g/ha (Kochia (Kochia scoparia); Preemergence, visual injury approx. 10 d, read-out: Kochia plant response rating (0 to 100 scale, 0 is no effect, 100 is complete control)): 70%
- pest or weed control at 125 g/ha [3, 15]: 0%
- pest or weed control at 500 g/ha ([3]; Preemergence, visual injury approx. 10 d, read-out: Pigweed plant response rating (0 to 100 scale, 0 is no effect, 100 is complete control)): 40%
- pest or weed control at 125 g/ha [4, 16]: 100%
- pest or weed control at 500 g/ha ([4]; Preemergence, visual injury approx. 10 d, read-out: Foxtail, Giant plant response rating (0 to 100 scale, 0 is no effect, 100 is complete control)): 100%
- Plant response rating: Surinam Grass ([5]; 31 g ai/ha): 35
- Plant response rating: Surinam Grass ([5]; 62 g ai/ha): 65
- Plant response rating: Surinam Grass ([5]; 125 g ai/ha): 95
- Plant response rating: Surinam Grass ([5]; 250 g ai/ha): 95
- Plant response rating: Morningglory ([6]; 31 g ai/ha): 0
- Plant response rating: Morningglory ([6]; 62 g ai/ha): 0
- Plant response rating: Morningglory ([6]; 125 g ai/ha): 0
- Plant response rating: Morningglory ([6]; 250 g ai/ha): 0
- Plant response rating: Velvetleaf ([7]; 31 g ai/ha): 0
- Plant response rating: Velvetleaf ([7]; 62 g ai/ha): 0
- Plant response rating: Velvetleaf ([7]; 125 g ai/ha): 0
- Plant response rating: Velvetleaf ([7]; 250 g ai/ha): 35
- Plant response rating: Dayflower, VA ([8]; 31 g ai/ha): 0
- Plant response rating: Dayflower, VA ([8]; 62 g ai/ha): 40
- Plant response rating: Dayflower, VA ([8]; 125 g ai/ha): 40
- Plant response rating: Dayflower, VA ([8]; 250 g ai/ha): 35
- Plant response rating: Nutsedge, Yellow ([9]; 31 g ai/ha): 0
- Plant response rating: Nutsedge, Yellow ([9]; 62 g ai/ha): 0
- Plant response rating: Nutsedge, Yellow ([9]; 125 g ai/ha): 0
- Plant response rating: Nutsedge, Yellow ([9]; 250 g ai/ha): 0
- Plant response rating: Sandbur ([10]; 31 g ai/ha): 85
- Plant response rating: Sandbur ([10]; 62 g ai/ha): 90
- Plant response rating: Sandbur ([10]; 125 g ai/ha): 90
- Plant response rating: Sandbur ([10]; 250 g ai/ha): 95
- Plant response rating: Barnyardgrass ([11]; 31 g ai/ha): 95
- Plant response rating: Barnyardgrass ([11]; 62 g ai/ha): 98
- Plant response rating: Barnyardgrass ([11]; 125 g ai/ha): 98
- Plant response rating: Barnyardgrass ([11]; 250 g ai/ha): 98
- Plant response rating: Soybean (soybean (Glycine max); 31 g ai/ha): 0
- Plant response rating: Soybean (soybean (Glycine max); 62 g ai/ha): 0
- Plant response rating: Soybean (soybean (Glycine max); 125 g ai/ha): 0
- Plant response rating: Soybean (soybean (Glycine max); 250 g ai/ha): 0

SMILES: CN1C[C@H](c2ccc(C(F)(F)F)cc2)[C@@H](C(=O)Nc2cccc(F)c2F)C1=O [Compound 623, (3S,4S)—N-(2,3-difluorophenyl)-1-methyl-2-oxo-4-[4-(trifluoromethyl)phenyl]-3-pyrrolidinecarboxamide]
- pest or weed control at 125 g/ha [1, 12]: 80%
- pest or weed control at 500 g/ha ([1]; preemergence, 0 to 100 scale, 0 = no effect, 100 = complete control, read-out: Plant response rating, Ragweed): 80%
- pest or weed control at 125 g/ha [2, 13]: 80%
- pest or weed control at 500 g/ha ([2]; preemergence, 0 to 100 scale, 0 = no effect, 100 = complete control, read-out: Plant response rating, Ryegrass, Italian): 90%
- pest or weed control at 125 g/ha (Kochia (Kochia scoparia); [14]): 60%
- pest or weed control at 500 g/ha (Kochia (Kochia scoparia); preemergence, 0 to 100 scale, 0 = no effect, 100 = complete control, read-out: Plant response rating, Kochia): 70%
- pest or weed control at 125 g/ha [3, 15]: 80%
- pest or weed control at 500 g/ha ([3]; preemergence, 0 to 100 scale, 0 = no effect, 100 = complete control, read-out: Plant response rating, Pigweed): 80%
- pest or weed control at 125 g/ha [4, 16]: 90%
- pest or weed control at 500 g/ha ([4]; preemergence, 0 to 100 scale, 0 = no effect, 100 = complete control, read-out: Plant response rating, Foxtail, Giant): 90%
- Plant response rating: Surinam Grass ([5]; 31 g ai/ha): 75
- Plant response rating: Surinam Grass ([5]; 62 g ai/ha): 90
- Plant response rating: Surinam Grass ([5]; 125 g ai/ha): 90
- Plant response rating: Surinam Grass ([5]; 250 g ai/ha): 90
- Plant response rating: Morningglory ([6]; 31 g ai/ha): 0
- Plant response rating: Morningglory ([6]; 62 g ai/ha): 0
- Plant response rating: Morningglory ([6]; 125 g ai/ha): 0
- Plant response rating: Morningglory ([6]; 250 g ai/ha): 0
- Plant response rating: Velvetleaf ([7]; 31 g ai/ha): 0
- Plant response rating: Velvetleaf ([7]; 62 g ai/ha): 50
- Plant response rating: Velvetleaf ([7]; 125 g ai/ha): 65
- Plant response rating: Velvetleaf ([7]; 250 g ai/ha): 65
- Plant response rating: Dayflower, VA ([8]; 31 g ai/ha): 0
- Plant response rating: Dayflower, VA ([8]; 62 g ai/ha): 0
- Plant response rating: Dayflower, VA ([8]; 125 g ai/ha): 20
- Plant response rating: Dayflower, VA ([8]; 250 g ai/ha): 35
- Plant response rating: Nutsedge, Yellow ([9]; 31 g ai/ha): 0
- Plant response rating: Nutsedge, Yellow ([9]; 62 g ai/ha): 20
- Plant response rating: Nutsedge, Yellow ([9]; 125 g ai/ha): 40
- Plant response rating: Nutsedge, Yellow ([9]; 250 g ai/ha): 80
- Plant response rating: Sandbur ([10]; 31 g ai/ha): 90
- Plant response rating: Sandbur ([10]; 62 g ai/ha): 90
- Plant response rating: Sandbur ([10]; 125 g ai/ha): 90
- Plant response rating: Sandbur ([10]; 250 g ai/ha): 90
- Plant response rating: Barnyardgrass ([11]; 31 g ai/ha): 95
- Plant response rating: Barnyardgrass ([11]; 62 g ai/ha): 95
- Plant response rating: Barnyardgrass ([11]; 125 g ai/ha): 98
- Plant response rating: Barnyardgrass ([11]; 250 g ai/ha): 98
- Plant response rating: Soybean (soybean (Glycine max); 31 g ai/ha): 0
- Plant response rating: Soybean (soybean (Glycine max); 62 g ai/ha): 0
- Plant response rating: Soybean (soybean (Glycine max); 125 g ai/ha): 0
- Plant response rating: Soybean (soybean (Glycine max); 250 g ai/ha): 0
